Columns and labels:
Experiment in all cases: relative viability (nuclei count vs DMSO), 5 days (fraction); higher = more cells survive
ChaGo-K-1 = test system: ChaGo-K-1
Method in brief: (§1)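 Nuclei were stained with Hoechst during a one-step fixation (final 0.05% Triton X-100, 1% formaldehyde, 1 ug/ml Hoechst) carried out 5 days after dosing, then counted on 4× images. The cells, lung cancer lines in 1536-well plates, had been dosed by pin tool the day after seeding with one drug alone or a fixed anchor-drug dose plus five library-drug doses (not always all listed) in √10 steps. Relative viability is the nuclei count in treated wells divided by that in vehicle wells, and each value is the median of duplicate plates.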

EMC-BAC-2 = test system: EMC-BAC-2
Method in brief: as §1

EPLC-272H = test system: EPLC-272H
Method in brief: as §1

HCC-44 = test system: HCC-44
Method in brief: as §1

HOP-62 = test system: HOP-62
Method in brief: as §1

LCLC-103H = test system: LCLC-103H
Method in brief: as §1

LCLC-97TM1 = test system: LCLC-97TM1
Method in brief: as §1

LOU-NH91 = test system: LOU-NH91
Method in brief: as §1

NCI-H1395 = test system: NCI-H1395
Method in brief: as §1

NCI-H1975 = test system: NCI-H1975
Method in brief: as §1

NCI-H1993 = test system: NCI-H1993
Method in brief: as §1

NCI-H2085 = test system: NCI-H2085
Method in brief: as §1

NCI-H2126 = test system: NCI-H2126
Method in brief: as §1

NCI-H2170 = test system: NCI-H2170
Method in brief: as §1

NCI-H2342 = test system: NCI-H2342
Method in brief: as §1

NCI-H2405 = test system: NCI-H2405
Method in brief: as §1

NCI-H3122 = test system: NCI-H3122
Method in brief: as §1

NCI-H322M = test system: NCI-H322M
Method in brief: as §1

NCI-H460 = test system: NCI-H460
Method in brief: as §1

NCI-H647 = test system: NCI-H647
Method in brief: as §1

With Oc1nc(-c2ccc(C(F)(F)F)cc2)nc2c1CSCC2 [XAV939] + NC(=O)Nc1cc(-c2cccc(F)c2)sc1C(=O)N[C@H]1CCCNC1 [AZD7762] (partner 0.2 µM) the relative viability (ChaGo-K-1; first compound 0.08 µM) was 0.904, the relative viability (ChaGo-K-1; first compound 0.253 µM) was 0.686 and the relative viability (ChaGo-K-1; first compound 0.8 µM) was 0.717. It also gave a relative viability (ChaGo-K-1; first compound 2.53 µM) of 0.754, a relative viability (EMC-BAC-2; first compound 0.08 µM) of 1.1 and a relative viability (EMC-BAC-2; first compound 0.253 µM) of 1.04. For the same compound, the relative viability (EMC-BAC-2; first compound 0.8 µM) was 0.95, the relative viability (EMC-BAC-2; first compound 2.53 µM) was 0.878 and the relative viability (EPLC-272H; first compound 0.08 µM) was 0.229. The relative viability (EPLC-272H; first compound 0.253 µM) was 0.18, the relative viability (EPLC-272H; first compound 0.8 µM) was 0.193 and the relative viability (EPLC-272H; first compound 2.53 µM) was 0.0888. It also gave a relative viability (HCC-44; first compound 0.08 µM) of 0.899, a relative viability (HCC-44; first compound 0.253 µM) of 0.89 and a relative viability (HCC-44; first compound 0.8 µM) of 0.953. The relative viability (HCC-44; first compound 2.53 µM) was 0.872, the relative viability (HOP-62; first compound 0.08 µM) was 0.827 and the relative viability (HOP-62; first compound 0.253 µM) was 0.503. The relative viability (HOP-62; first compound 0.8 µM) was 0.613, the relative viability (HOP-62; first compound 2.53 µM) was 0.323 and the relative viability (LCLC-103H; first compound 0.08 µM) was 0.869. It also gave a relative viability (LCLC-103H; first compound 0.253 µM) of 0.719, a relative viability (LCLC-103H; first compound 0.8 µM) of 0.792 and a relative viability (LCLC-103H; first compound 2.53 µM) of 0.68. For the same compound, the relative viability (LCLC-97TM1; first compound 0.08 µM) was 0.446, the relative viability (LCLC-97TM1; first compound 0.8 µM) was 0.208 and the relative viability (LCLC-97TM1; first compound 2.53 µM) was 0.172. The relative viability (LOU-NH91; first compound 0.08 µM) was 0.762, the relative viability (LOU-NH91; first compound 0.253 µM) was 0.681 and the relative viability (LOU-NH91; first compound 0.8 µM) was 0.687. For the same compound, the relative viability (LOU-NH91; first compound 2.53 µM) was 0.692, the relative viability (NCI-H1395; first compound 0.08 µM) was 0.389 and the relative viability (NCI-H1395; first compound 0.253 µM) was 0.384. It also gave a relative viability (NCI-H1395; first compound 0.8 µM) of 0.377, a relative viability (NCI-H1395; first compound 2.53 µM) of 0.366 and a relative viability (NCI-H1975; first compound 0.08 µM) of 0.684. The relative viability (NCI-H1975; first compound 0.253 µM) was 0.534, the relative viability (NCI-H1975; first compound 0.8 µM) was 0.504 and the relative viability (NCI-H1975; first compound 2.53 µM) was 0.516. It also gave a relative viability (NCI-H1993; first compound 0.08 µM) of 0.923, a relative viability (NCI-H1993; first compound 0.253 µM) of 0.569 and a relative viability (NCI-H1993; first compound 0.8 µM) of 0.62. For the same compound, the relative viability (NCI-H1993; first compound 2.53 µM) was 0.653, the relative viability (NCI-H2085; first compound 0.08 µM) was 1.07 and the relative viability (NCI-H2085; first compound 0.253 µM) was 0.876. It also gave a relative viability (NCI-H2085; first compound 0.8 µM) of 0.896, a relative viability (NCI-H2085; first compound 2.53 µM) of 0.881 and a relative viability (NCI-H2126; first compound 0.08 µM) of 1.04. It also gave a relative viability (NCI-H2126; first compound 0.253 µM) of 0.912, a relative viability (NCI-H2126; first compound 0.8 µM) of 0.943 and a relative viability (NCI-H2126; first compound 2.53 µM) of 0.882. The relative viability (NCI-H2170; first compound 0.08 µM) was 0.867, the relative viability (NCI-H2170; first compound 0.253 µM) was 0.692 and the relative viability (NCI-H2170; first compound 0.8 µM) was 0.823. It also gave a relative viability (NCI-H2170; first compound 2.53 µM) of 0.532, a relative viability (NCI-H2342; first compound 0.08 µM) of 0.425 and a relative viability (NCI-H2342; first compound 0.253 µM) of 0.443. For the same compound, the relative viability (NCI-H2342; first compound 0.8 µM) was 0.401, the relative viability (NCI-H2342; first compound 2.53 µM) was 0.345 and the relative viability (NCI-H2405; first compound 0.08 µM) was 0.701. For the same compound, the relative viability (NCI-H2405; first compound 0.253 µM) was 0.731, the relative viability (NCI-H2405; first compound 0.8 µM) was 0.672 and the relative viability (NCI-H2405; first compound 2.53 µM) was 0.569. The relative viability (NCI-H3122; first compound 0.08 µM) was 1.01, the relative viability (NCI-H3122; first compound 0.253 µM) was 0.964 and the relative viability (NCI-H3122; first compound 0.8 µM) was 0.9. For the same compound, the relative viability (NCI-H3122; first compound 2.53 µM) was 0.573, the relative viability (NCI-H322M; first compound 0.08 µM) was 0.573 and the relative viability (NCI-H322M; first compound 0.253 µM) was 0.45. It also gave a relative viability (NCI-H322M; first compound 0.8 µM) of 0.539, a relative viability (NCI-H322M; first compound 2.53 µM) of 0.495 and a relative viability (NCI-H460; first compound 0.08 µM) of 0.765. For the same compound, the relative viability (NCI-H460; first compound 0.253 µM) was 0.631, the relative viability (NCI-H460; first compound 0.8 µM) was 0.636 and the relative viability (NCI-H460; first compound 2.53 µM) was 0.551. It also gave a relative viability (NCI-H647; first compound 0.08 µM) of 0.489, a relative viability (NCI-H647; first compound 0.253 µM) of 0.351 and a relative viability (NCI-H647; first compound 0.8 µM) of 0.319. For the same compound, the relative viability (NCI-H647; first compound 2.53 µM) was 0.412.
